Experimental data as given in article PMC4177084 (Journal of Thyroid Research, 2014).
Read-outs that look alike come from different tables or passages of the source.

Assays:
K1 cells = test: Antiproliferation assay (WST-8); format: cell-based, human; conditions: for T/N: ratio of IC50 values of thyroid cancer cell lines to that of Nthy-ori 3-1 cells: K1; for IC50: K1 (DTC), antiproliferative, 3 days
Nthy-ori 3-1 cells = test: Antiproliferation assay (WST-8); format: cell-based, human; conditions: Nthy-ori 3-1 (normal thyroid), antiproliferative, 3 days
FTC-133 cells = test: Antiproliferation assay (WST-8); format: cell-based, human; conditions: for T/N: ratio of IC50 values of thyroid cancer cell lines to that of Nthy-ori 3-1 cells: FTC-133; for IC50: FTC-133 (DTC), antiproliferative, 3 days
FTC-236 cells = test: Antiproliferation assay (WST-8); format: cell-based, human
RO82-W-1 cells = test: Antiproliferation assay (WST-8); format: cell-based, human; conditions: for T/N: ratio of IC50 values of thyroid cancer cell lines to that of Nthy-ori 3-1 cells: RO82-W-1; for IC50: RO82-W-1 (DTC), antiproliferative, 3 days; for antiproliferative activity: RO82-W-1, in words
FTC-238 cells = test: Antiproliferation assay (WST-8); format: cell-based, human; conditions: for T/N: ratio of IC50 values of thyroid cancer cell lines to that of Nthy-ori 3-1 cells: FTC-238; for IC50: FTC-238 (DTC), antiproliferative, 3 days
RO82-W-1 xenograft = test: Human thyroid cancer xenograft model, tumor growth; format: in vivo, nude mice
Description: Nude mice (CAnN.Cg-Foxn1nu/CrlCrlj, female, 5-6 weeks old) were obtained from Charles River Laboratories Japan (Kanagawa, Japan). Mice were maintained under specific pathogen-free conditions and housed in barrier facilities on a 12 h light/dark cycle, with food and water ad libitum. All procedures using laboratory animals were done in accordance with all applicable institutional and government regulatory guidelines and policies and were performed in an animal facility accredited by the Center for Accreditation of Laboratory Animal Care of the Japan Health Sciences Foundation.
Tumor cells were cultured in appropriate culture mediums. Cells were harvested with 0.05% or 0.25% (w/v) trypsin/EDTA and suspended with 50% (v/v) BD Matrigel (BD Biosciences, San Jose, CA) in the mixture of culture mediums at a density of 5–10 × 10^7 cells/mL. Then, 0.1-0.2 mL of the cell suspension was inoculated subcutaneously into the right flank region of each mouse. […] The tumor size was measured in two dimensions by using a caliper, and the volume was calculated by using the formula: tumor volume (mm^3) = 1/2 length (mm) × [width (mm)]^2. The change in tumor volume in the treated group relative to that in the control group was calculated according to the following formula: ΔT/C = (ΔT/ΔC) × 100%, where ΔT and ΔC are the change in tumor volume (i.e., growth) for the treated and vehicle control group, respectively. The percentage of tumor growth inhibition (%TGI) was calculated from the formula: [(1 − ΔT/ΔC) × 100].
Supplementary Fig. S7 Comparison of antitumor activity with antiangiogenesis activity in human differentiated thyroid cancer RO82-W-1 xenografts in nude mice.
Nude mice bearing RO82-W-1 xenografts […]
when tumor volumes reached about 200 mm3 (day 1). The tumor volume was measured on day 22. Each group consisted of 6 mice. Data are shown as means ± SD. * P < 0.05 compared with vehicle-treated mice.
(b) The percentage of tumor growth inhibition (%TGI). Each group consisted of 6 mice. Antitumor activity was calculated as %TGI at day 22. Data are shown as means ± SD. * P < 0.05 compared […]
analyze the relationship between antitumor activity (%TGI) and antiangiogenesis activity (percentage of […]
sorafenib-treated groups were plotted on the X- and Y-axes, respectively. %TGI and %MVI was determined as described in Materials and Methods. Analysis of covariance (ANCOVA) for %TGI was examined by using %MVI as a covariate (P<0.05)

[1] = test system: FGFR1 and its downstream effectors (FRS2, MEK, ERK); test: Western blot of FGFR1 signaling in bFGF-stimulated RO82-W-1 cells
TT cells = test: Antiproliferation assay (WST-8); format: cell-based; conditions: Homo sapiens, TT, 240 h
COT = target: T1, COT (Homo sapiens, UniProt P41279); test: Cell free kinase inhibition assay; format: biochemical
T1 construct: purchased Carna Biosciences, Inc. (Kobe, Japan)
Description: […]. Briefly, each test compound was mixed with enzyme, substrate, ATP, and Mg under appropriate buffer conditions for the ELISA or MSA. […] IC50 values (the half maximal inhibitory concentration) were calculated from concentrations versus % inhibition curves.

[2] = FTC-236 (DTC), antiproliferative, 3 days, read-out: IC50

T1 sequence (P41279 whole entry): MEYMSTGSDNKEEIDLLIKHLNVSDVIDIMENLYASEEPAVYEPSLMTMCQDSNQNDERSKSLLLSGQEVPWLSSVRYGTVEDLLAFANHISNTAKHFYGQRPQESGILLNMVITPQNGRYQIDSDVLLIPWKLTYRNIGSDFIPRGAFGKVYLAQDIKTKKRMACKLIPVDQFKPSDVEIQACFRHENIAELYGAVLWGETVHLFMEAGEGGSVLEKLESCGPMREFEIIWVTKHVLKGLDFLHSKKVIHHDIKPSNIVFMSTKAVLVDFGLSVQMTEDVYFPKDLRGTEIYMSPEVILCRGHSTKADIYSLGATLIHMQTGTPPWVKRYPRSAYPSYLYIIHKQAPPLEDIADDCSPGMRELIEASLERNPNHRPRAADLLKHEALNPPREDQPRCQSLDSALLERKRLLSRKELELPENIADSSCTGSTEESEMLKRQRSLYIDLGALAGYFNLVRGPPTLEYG

| SMILES | T/N: ratio of IC50 values of thyroid cancer cell lines to that of Nthy-ori 3-1 cells (K1 cells) | IC50 (K1 cells) [µM] | IC50 (Nthy-ori 3-1 cells) [µM] | T/N: ratio of IC50 values of thyroid cancer cell lines to that of Nthy-ori 3-1 cells (FTC-133 cells) | IC50 (FTC-133 cells) [µM] | IC50 (FTC-236 cells; [2]) [µM] | T/N: ratio of IC50 values of thyroid cancer cell lines to that of Nthy-ori 3-1 cells (RO82-W-1 cells) | IC50 (RO82-W-1 cells) [nM] | antiproliferative activity (RO82-W-1 cells) | T/N: ratio of IC50 values of thyroid cancer cell lines to that of Nthy-ori 3-1 cells (FTC-238 cells) | IC50 (FTC-238 cells) [µM] | IC50 (K1 cells; Homo sapiens, 72 h) [µM] | IC50 (FTC-133 cells; Homo sapiens, 72 h) [µM] | IC50 (RO82-W-1 cells; Homo sapiens, 72 h) [nM] | IC50 (FTC-238 cells; Homo sapiens, 72 h) [µM] | further results |
| --- | --- | --- | --- | --- | --- | --- | --- | --- | --- | --- | --- | --- | --- | --- | --- | --- |
| COc1ccc(Oc2ccnc3cc(OC)c(OC)cc23)cc1OC [Ki6783] | 5.4 | 9.2 | 1.7 | 4.7 | 8 | > 30 | 1.5 | 2500 | no antiproliferative activity | 1.2 | 2 | – | – | – | – | – |
| Cc1ccc(NC(=O)c2ccc(CN3CCN(C)CC3)cc2)cc1Nc1nccc(-c2cccnc2)n1 [Glivec, imatinib] | – | – | – | – | – | – | – | – | no antiproliferative activity | – | – | – | – | – | – | – |
| CCN(CC)CCCCNc1ncc2cc(-c3cc(OC)cc(OC)c3)c(NC(=O)NC(C)(C)C)nc2n1 [PD173074] | 2.39 | – | – | 2.11 | – | – | 0.14 | – | – | 2.04 | – | 11 | 9.7 | 630 | 9.4 | IC50 (Nthy-ori 3-1 cells; Homo sapiens, 72 h): 4.6 µM; antitumor activity (RO82-W-1 xenograft; RO82-W-1 xenograft, daily oral administration for 14 days): significant antitumor activity; T/N: ratio of IC50 values of thyroid cancer cell lines to that of Nthy-ori 3-1 cells (FTC-236 cells; FTC-236): 0.93; IC50 (FTC-236 cells; Homo sapiens, 72 h, FTC-236 (DTC), antiproliferative, 3 days, read-out: IC50): 4.3 µM; phosphorylation of FGFR1, FRS2, MEK, and ERK ([1]; 1 h treatment, then bFGF 20 ng/mL and heparin 10 min): inhibited the bFGF-induced phosphorylation of FGFR1, FRS2, MEK, and ERK in a concentration-dependent manner |
| CNC(=O)c1cc(Oc2ccc(NC(=O)Nc3ccc(Cl)c(C(F)(F)F)c3)cc2)ccn1 [Sorafenib] | – | – | – | – | – | – | – | – | – | – | – | 5.2 | 5.5 | 4200 | 7.3 | IC50 (TT cells): 260 nM; IC50 (COT): > 10 µM; tumor growth (RO82-W-1 xenograft; RO82-W-1 xenografts, oral once daily 21 days, doses between 30 and 300 mg/kg): inhibited tumor growth; IC50 (FTC-236 cells; Homo sapiens, 72 h): 7.7 µM; phosphorylation of MEK ([1]; 10 μM, bFGF-stimulated): weakly inhibited; phosphorylation of FGFR1 or its other downstream effectors ([1]; up to 10 μM, bFGF-stimulated): did not clearly inhibit |
| COc1cc(OC)cc(-c2cc3cnc(N)nc3nc2NC(=O)NC(C)(C)C)c1 [PD166866] | 2.07 | 29 | 14 | 1.64 | 23 | > 30 | 0.14 | 1900 | – | 1.5 | 21 | – | – | – | – | – |
